From patent publication US8426408B2, “Pyrimidine inhibitors of kinases” (AbbVie Inc., priority 2009, dated 2013)

What was measured:
Format in all cases: biochemical
[1] = molecular target: T1, Aurora B (Homo sapiens, UniProt Q96GD4); assay: Aurora B enzyme inhibition (time-resolved fluorescence, histone H3 peptide); details: 1 mM ATP
T1 construct: Active Aurora B enzyme (recombinant residues 1-344)
Method: To determine Aurora B activity of representative compounds of the invention, Active Aurora B enzyme (recombinant residues 1-344) and INCENP (recombinant GST fusion protein (Upstate)) were incubated in wells of a 384 well plate with biotinylated histone H3 peptide residues 1-21 (Upstate), 1 mM ATP, and various concentrations of inhibitors in a HEPES buffer, pH 7.4 containing MgCl2, sodium othrovanadate, and Triton X-100. After 1 hour, the reaction was stopped with EDTA and anti-phospho-histone H3 Europium Cryptate (Cis-Bio) and SA-APC (Phycolink, Prozyme) were added to detect the phosphopeptide. The amount of phosphorylation was determined by the time-resolved fluorescence ratio of signals at 665 nm and 615 nm. The IC50's were calculated by an exponential fit of the inhibition values with the inhibitor concentrations using Assay Explorer software.

[2] = molecular target: T2, Aurora A (Homo sapiens, UniProt O14965); assay: Aurora A enzyme inhibition (time-resolved fluorescence, STK substrate-2); details: 1 mM ATP
T2 sequence (O14965 1-403): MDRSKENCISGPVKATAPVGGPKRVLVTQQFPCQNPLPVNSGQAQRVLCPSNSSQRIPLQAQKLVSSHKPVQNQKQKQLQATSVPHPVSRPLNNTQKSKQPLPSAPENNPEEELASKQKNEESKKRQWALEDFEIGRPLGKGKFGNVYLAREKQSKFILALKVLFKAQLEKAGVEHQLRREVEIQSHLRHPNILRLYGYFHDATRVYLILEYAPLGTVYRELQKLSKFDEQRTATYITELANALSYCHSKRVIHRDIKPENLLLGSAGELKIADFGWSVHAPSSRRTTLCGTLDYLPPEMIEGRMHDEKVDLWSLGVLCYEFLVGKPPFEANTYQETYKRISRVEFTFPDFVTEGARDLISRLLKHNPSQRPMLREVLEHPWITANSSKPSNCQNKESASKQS
Method: To determine Aurora A and C activity of representative compounds of the invention, Active Aurora A or C enzyme was incubated in wells of a 384 well plate with biotinylated STK substrate-2 (Upstate), 1 mM ATP, and various concentrations of inhibitors in a Hepes buffer, pH 7.4 containing MgCl2, sodium othrovanadate, and Triton X-100. After 1 hour, the reaction was stopped with EDTA and anti-phospho-STK antibody Europium Cryptate (Upstate) and SA-XL665 (Upstate) were added to detect the phosphopeptide. The amount of phosphorylation was determined by the time-resolved fluorescence ratio of signals at 665 nm and 615 nm. The IC50s were calculated by an exponential fit of the inhibition values with the inhibitor concentrations using Assay Explorer software.

[3] = molecular target: KDR (Homo sapiens, UniProt P35968); assay: KDR HTRF in vitro kinase assay; design: purified enzyme (His6-KDR 789-1354, MW 63 kD); His6 (N); details: 1 mM ATP; read-out: KDR enzyme inhibition data (Ki)
Method: To determine the activity of the various kinases, a homogenous time-resolved fluorescence (HTRF) in vitro kinase assay was used. (Mathis, G., HTRF® Technology. J Biomol Screen, 1999. 4(6): p. 309-314; Alfred J. Kolb, Paul V. Kaplita, David J. Hayes, Young-Whan Park, Christine Pernell, John S. Major and Gerard Mathis, Drug Discovery Today, 1998, 3, 333-342.)
For example for KDR, 7 ng/well of purified enzyme (His6-KDR 789-1354, MW 63 kD) was mixed with 0.5 μM N-biotinylated substrate (Biotin-Ahx-AEEEYFFLA-amide (SEQ. ID. 1)), various concentrations of inhibitor in reaction buffer (50 mM HEPES, pH 7.1, 10 mM MgCl2, 2 mM MnCl2, 0.1% BSA and 1 mM DTT, 40 L final volume), ATP (1 mM final conc.) in a black 384-well plate. After 60 minutes incubation at room temperature, the reaction was quenched by addition of a buffered EDTA solution (final approximate concentrations: 30 mM EDTA, 0.1% BSA, 0.1% Triton X-100 and 0.24M KF) and a solution of revelation agents (to give 0.084 ng/well streptavidin-XL-665 (Cis-Bio) and 6.5 ng/well antiphsophotyrosine mAb PT66-K Europium kryptate) was added to the reaction mixture. The quenched reaction was allowed to stand at room temperature for 3 hours and was then read in a time-resolved fluorescence detector (InVision, Perkin-Elmer) at 620 nm and 665 nm sequentially with excitation. The ratio between the signal of 620 nm and 665 nm was used in the calculation of the IC50.

Measured: Ki

Chain of KDR (P35968 789-1354): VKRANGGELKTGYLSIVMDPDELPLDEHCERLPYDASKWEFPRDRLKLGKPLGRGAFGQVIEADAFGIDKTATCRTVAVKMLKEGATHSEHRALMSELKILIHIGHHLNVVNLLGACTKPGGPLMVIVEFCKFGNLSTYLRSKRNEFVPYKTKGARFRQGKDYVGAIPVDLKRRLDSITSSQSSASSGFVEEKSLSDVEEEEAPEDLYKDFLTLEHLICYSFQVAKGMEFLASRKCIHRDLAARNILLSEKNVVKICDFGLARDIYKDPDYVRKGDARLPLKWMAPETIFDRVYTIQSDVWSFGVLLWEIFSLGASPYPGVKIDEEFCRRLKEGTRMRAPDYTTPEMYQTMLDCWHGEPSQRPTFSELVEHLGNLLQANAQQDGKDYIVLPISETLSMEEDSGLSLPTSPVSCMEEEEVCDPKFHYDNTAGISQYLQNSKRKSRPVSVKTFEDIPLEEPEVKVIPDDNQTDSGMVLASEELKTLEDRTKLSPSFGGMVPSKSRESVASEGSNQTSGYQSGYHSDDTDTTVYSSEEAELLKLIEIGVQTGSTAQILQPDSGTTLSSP
T1 sequence (Q96GD4 whole entry, the tested form may be a part): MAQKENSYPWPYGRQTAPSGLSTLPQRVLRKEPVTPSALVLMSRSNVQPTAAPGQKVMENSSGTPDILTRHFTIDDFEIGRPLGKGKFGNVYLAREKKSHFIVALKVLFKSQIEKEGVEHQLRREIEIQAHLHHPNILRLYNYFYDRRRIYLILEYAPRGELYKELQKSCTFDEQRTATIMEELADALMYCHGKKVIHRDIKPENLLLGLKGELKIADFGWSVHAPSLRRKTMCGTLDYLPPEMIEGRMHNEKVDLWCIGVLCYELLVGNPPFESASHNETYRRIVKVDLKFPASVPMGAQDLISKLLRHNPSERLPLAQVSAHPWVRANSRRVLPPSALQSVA
T1 sequence (Q9NQS7 826-918 partner limits assumed): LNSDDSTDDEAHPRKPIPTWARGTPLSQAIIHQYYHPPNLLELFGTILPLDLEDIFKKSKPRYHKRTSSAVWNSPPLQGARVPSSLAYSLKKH

CCn1cc(Nc2ncc(Cl)c(N[C@@H]3[C@H](C(=O)NC)[C@H]4C=C[C@@H]3C4)n2)cn1.CCn1cc(Nc2ncc(Cl)c(N[C@H]3[C@@H](C(=O)NC)[C@@H]4C=C[C@H]3C4)n2)cn1 (mixture of isomers) [Example 51, (1S,2S,3R,4R)-3-({5-chloro-2-[(1-ethyl-1H-pyrazol-4-yl)amino]pyrimidin-4-yl}amino)-N-methylbicyclo[2.2.1]hept-5-ene-2-carboxamide and (1R,2R,3S,4S)-3-({5-chloro-2-[(1-ethyl-1H-pyrazol-4-yl)amino]pyrimidin-4-yl}amino)-N-methylbicyclo[2.2.1]hept-5-ene-2-carboxamide]
< 100 nM: all assays above

COc1cnc(Nc2cnn(C)c2)nc1NC1C2C=CC(C2)C1C(N)=O (mixture of isomers) [Example 52, (1S,2S,3R,4R)-3-({5-methoxy-2-[(1-methyl-1H-pyrazol-4-yl)amino]pyrimidin-4-yl}amino)bicyclo[2.2.1]hept-5-ene-2-carboxamide and (1R,2R,3S,4S)-3-({5-methoxy-2-[(1-methyl-1H-pyrazol-4-yl)amino]pyrimidin-4-yl}amino)bicyclo[2.2.1]hept-5-ene-2-carboxamide]
< 100 nM: all assays above

CCn1cc(Nc2ncc(OC)c(NC3C4C=CC(C4)C3C(N)=O)n2)cn1 (mixture of isomers) [Example 53, (1S,2S,3R,4R)-3-({2-[(1-ethyl-1H-pyrazol-4-yl)amino]-5-methoxypyrimidin-4-yl}amino)bicyclo[2.2.1]hept-5-ene-2-carboxamide and (1R,2R,3S,4S)-3-({2-[(1-ethyl-1H-pyrazol-4-yl)amino]-5-methoxypyrimidin-4-yl}amino)bicyclo[2.2.1]hept-5-ene-2-carboxamide]
< 100 nM: all assays above

CN(C)C(=O)Cn1cc(Nc2ncc(Cl)c(N[C@@H]3[C@H](C(N)=O)[C@H]4C=C[C@@H]3C4)n2)cn1.CN(C)C(=O)Cn1cc(Nc2ncc(Cl)c(N[C@H]3[C@@H](C(N)=O)[C@@H]4C=C[C@H]3C4)n2)cn1 (mixture of isomers) [Example 54, (1S,2S,3R,4R)-3-{[5-chloro-2-({1-[2-(dimethylamino)-2-oxoethyl]-1H-pyrazol-4-yl}amino)pyrimidin-4-yl]amino}bicyclo[2.2.1]hept-5-ene-2-carboxamide and (1R,2R,3S,4S)-3-{[5-chloro-2-({1-[2-(dimethylamino)-2-oxoethyl]-1H-pyrazol-4-yl}amino)pyrimidin-4-yl]amino}bicyclo[2.2.1]hept-5-ene-2-carboxamide]
< 100 nM: all assays above

CC(C)OC(=O)Cn1cc(Nc2ncc(Br)c(N[C@@H]3[C@H](C(N)=O)[C@H]4C=C[C@@H]3C4)n2)cn1.CC(C)OC(=O)Cn1cc(Nc2ncc(Br)c(N[C@H]3[C@@H](C(N)=O)[C@@H]4C=C[C@H]3C4)n2)cn1 (mixture of isomers) [Example 55, isopropyl{4-[(4-{[(1S,2S,3R,4R)-3-(aminocarbonyl)bicyclo[2.2.1]hept-5-ene-2-yl]amino}-5-bromopyrimidin-2-yl)amino]-1H-pyrazol-1-yl}acetate and isopropyl{4-[(4-{[(1R,2R,3S,4S)-3-(aminocarbonyl)bicyclo[2.2.1]hept-5-ene-2-yl]amino}-5-bromopyrimidin-2-yl)amino]-1H-pyrazol-1-yl}acetate]
< 100 nM: all assays above

Cn1cc(Nc2ncc(Cl)c(N[C@@H]3[C@H]4CC[C@H](C4)[C@@H]3C(N)=O)n2)cn1.Cn1cc(Nc2ncc(Cl)c(N[C@H]3[C@@H]4CC[C@@H](C4)[C@H]3C(N)=O)n2)cn1 (mixture of isomers) [Example 56, (1R,2S,3R,4S)-3-({5-chloro-2-[(1-methyl-1H-pyrazol-4-yl)amino]pyrimidin-4-yl}amino)bicyclo[2.2.1]heptane-2-carboxamide and (1S,2R,3S,4R)-3-({5-chloro-2-[(1-methyl-1H-pyrazol-4-yl)amino]pyrimidin-4-yl}amino)bicyclo[2.2.1]heptane-2-carboxamide]
< 100 nM: all assays above

CCn1cc(Nc2ncc(Cl)c(N[C@@H]3[C@H]4CC[C@H](C4)[C@@H]3C(N)=O)n2)cn1.CCn1cc(Nc2ncc(Cl)c(N[C@H]3[C@@H]4CC[C@@H](C4)[C@H]3C(N)=O)n2)cn1 (mixture of isomers) [Example 57, (1R,2S,3R,4S)-3-({5-chloro-2-[(1-ethyl-1H-pyrazol-4-yl)amino]pyrimidin-4-yl}amino)bicyclo[2.2.1]heptane-2-carboxamide and (1S,2R,3S,4R)-3-({5-chloro-2-[(1-ethyl-1H-pyrazol-4-yl)amino]pyrimidin-4-yl}amino)bicyclo[2.2.1]heptane-2-carboxamide]
< 100 nM: all assays above

CN(C)C(=O)Cn1cc(Nc2ncc(Cl)c(N[C@@H]3[C@H]4CC[C@H](C4)[C@@H]3C(N)=O)n2)cn1.CN(C)C(=O)Cn1cc(Nc2ncc(Cl)c(N[C@H]3[C@@H]4CC[C@@H](C4)[C@H]3C(N)=O)n2)cn1 (mixture of isomers) [Example 58, (1R,2S,3R,4S)-3-{[5-chloro-2-({1-[2-(dimethylamino)-2-oxoethyl]-1H-pyrazol-4-yl}amino)pyrimidin-4-yl]amino}bicyclo[2.2.1]heptane-2-carboxamide and (1S,2R,3S,4R)-3-{[5-chloro-2-({1-[2-(dimethylamino)-2-oxoethyl]-1H-pyrazol-4-yl}amino)pyrimidin-4-yl]amino}bicyclo[2.2.1]heptane-2-carboxamide]
< 100 nM: all assays above

NC(=O)[C@@H]1[C@H]2CC[C@H](C2)[C@@H]1Nc1nc(Nc2cnn(CCO)c2)ncc1Cl.NC(=O)[C@H]1[C@@H]2CC[C@@H](C2)[C@H]1Nc1nc(Nc2cnn(CCO)c2)ncc1Cl (mixture of isomers) [Example 59, (1R,2S,3R,4S)-3-[(5-chloro-2-{[1-(2-hydroxyethyl)-1H-pyrazol-4-yl]amino}pyrimidin-4-yl)amino]bicyclo[2.2.1]heptane-2-carboxamide and (1S,2R,3S,4R)-3-[(5-chloro-2-{[1-(2-hydroxyethyl)-1H-pyrazol-4-yl]amino}pyrimidin-4-yl)amino]bicyclo[2.2.1]heptane-2-carboxamide]
< 100 nM: all assays above

NC(=O)[C@@H]1[C@H]2CC[C@H](C2)[C@@H]1Nc1nc(Nc2cnn(CCN3CCOCC3)c2)ncc1Cl.NC(=O)[C@H]1[C@@H]2CC[C@@H](C2)[C@H]1Nc1nc(Nc2cnn(CCN3CCOCC3)c2)ncc1Cl (mixture of isomers) [Example 60, (1R,2S,3R,4S)-3-[(5-chloro-2-{[1-(2-morpholin-4-ylethyl)-1H-pyrazol-4-yl]amino}pyrimidin-4-yl)amino]bicyclo[2.2.1]heptane-2-carboxamide and (1S,2R,3S,4R)-3-[(5-chloro-2-{[1-(2-morpholin-4-ylethyl)-1H-pyrazol-4-yl]amino}pyrimidin-4-yl)amino]bicyclo[2.2.1]heptane-2-carboxamide]
< 100 nM: all assays above
